Article PMC5485972, “N-Caffeoyltryptamine, a Potent Anti-Inflammatory Phenolic Amide, Suppressed MCP-1 Expression in LPS-stimulated THP-1 Cells and Rats Fed a High-Fat Diet” (International Journal of Molecular Sciences, 2017)

Columns and labels:
p38 MAP kinase β = molecular target: T1, p38 MAP kinase β (Homo sapiens, UniProt Q15759); assay: Promega CMGC-1 kinase selectivity profiling system, ADP-Glo kinase assay; type: biochemical
T1 construct: gene MAPK11

p38 MAP kinase α = molecular target: T2, p38 MAP kinase α (Homo sapiens, UniProt Q16539); assay: as above; type: biochemical
T2 construct: gene MAPK14
T2 sequence (Q16539 2-360): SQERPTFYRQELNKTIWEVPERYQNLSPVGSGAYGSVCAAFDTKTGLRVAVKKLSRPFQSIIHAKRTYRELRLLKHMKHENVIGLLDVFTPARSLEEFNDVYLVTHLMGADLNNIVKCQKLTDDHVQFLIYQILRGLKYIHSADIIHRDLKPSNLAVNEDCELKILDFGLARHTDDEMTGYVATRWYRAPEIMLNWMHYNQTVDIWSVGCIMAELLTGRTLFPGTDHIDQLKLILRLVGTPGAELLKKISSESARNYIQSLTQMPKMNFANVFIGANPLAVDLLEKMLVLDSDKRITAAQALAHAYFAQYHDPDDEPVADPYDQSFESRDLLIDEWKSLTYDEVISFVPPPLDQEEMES

T1 sequence (Q15759 whole entry): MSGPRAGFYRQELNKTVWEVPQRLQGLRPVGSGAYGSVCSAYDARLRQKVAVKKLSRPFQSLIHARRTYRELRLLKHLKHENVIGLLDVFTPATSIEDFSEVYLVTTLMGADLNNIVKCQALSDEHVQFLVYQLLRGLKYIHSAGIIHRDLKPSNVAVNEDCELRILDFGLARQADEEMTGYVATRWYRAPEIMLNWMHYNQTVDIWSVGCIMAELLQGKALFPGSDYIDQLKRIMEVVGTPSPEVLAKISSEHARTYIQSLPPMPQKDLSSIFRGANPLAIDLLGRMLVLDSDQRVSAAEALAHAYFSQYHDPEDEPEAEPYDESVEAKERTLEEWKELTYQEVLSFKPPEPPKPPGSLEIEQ

IC50 (p38 MAP kinase β): 18.3 µM | IC50 (p38 MAP kinase α): 16.7 µM
Compound: O=C(/C=C/c1ccc(O)c(O)c1)NCCc1c[nH]c2ccccc12 [N-caffeoyltryptamine]
